Consider 23 compounds from patent US20250188040A1, “PHARMACEUTICAL COMPOSITIONS COMPRISING WRN HELICASE INHIBITORS” (Vividion Therapeutics, Inc., priority 2022, published 2025).

The target in test [1] is hWRN(519-1227)_C-H3CV-GFP-10His (Homo sapiens, UniProt Q14191). Briefly: Helicase Assay for WRN Inhibition (ATP-dependent, fluorescence based).
In test [2] the test system is SW480 cells. Briefly: Cell growth assay (CellTiter-Glo 2.0), SW480 MSS cell line. As to conditions: Homo sapiens, SW480, 120 h, read-out: Cell Growth Inhibition GI50 SW480. (In general: ATP-based viability assays read luminescence as a measure of living cells.)
Protocol: The effects of compound on cellular viability were determined using the CellTiter-Glo® 2.0 Luminescent Cell Viability Assay (Promega, Madison, WI).
SW480 cells were seeded at 1,000 cells per well in Eagle's Minimum Essential Medium (EMEM) with 10% FBS. Both cell lines were seeded in a volume of 50 μL medium per well. […] The concentration range was adjusted as needed for compounds of different potencies. The cells treated with compounds were incubated for 5 days at 37° C. in 5% CO2. […] The plate was then read on a Clariostar plate reader (BMG Labtech, Cary, NC) in luminescence mode. The previously measured baseline cell viability was subtracted from the luminescence value of each well, and cell viability (% of DMSO) was plotted as a function of log compound concentration. The EC50 was then calculated for each compound using Dotmatics Software (San Diego, CA).
Test [3] concerns the target T1, WRN C727 (Homo sapiens, UniProt Q14191).
T1 construct: endogenous in cells; host or cells: OCI-AML2
Briefly: Target engagement, in vitro (lysate), OCI-AML2. As to conditions: read-out: OCI-AML2 WRN C727 TE50 in vitro (lysate). The test is classed as binding. The procedure, abridged: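 Percent engagement of WRN C727 is expressed against DMSO-treated samples, measured by PRM mass spectrometry of streptavidin-enriched, probe-tagged tryptic peptides. Compound dose responses preceded probe labelling of solvent-exposed cysteines, in either living OCI-AML2 cells or their lysates.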

For test [4], the system named is HCT 116 cells. The test can be described thus: Cell growth assay (CellTiter-Glo 2.0), HCT 116 MSI-H cell line. As to conditions: Homo sapiens, HCT-116, 120 h, read-out: Cell Growth Inhibition GI50 HCT-116.
Setting [5] is: WRN Helicase IC50, 30 min preincubation with ATP, 30 min reaction.

Where two headings read alike, the source gives them in different places.

T1 sequence (Q14191 whole entry): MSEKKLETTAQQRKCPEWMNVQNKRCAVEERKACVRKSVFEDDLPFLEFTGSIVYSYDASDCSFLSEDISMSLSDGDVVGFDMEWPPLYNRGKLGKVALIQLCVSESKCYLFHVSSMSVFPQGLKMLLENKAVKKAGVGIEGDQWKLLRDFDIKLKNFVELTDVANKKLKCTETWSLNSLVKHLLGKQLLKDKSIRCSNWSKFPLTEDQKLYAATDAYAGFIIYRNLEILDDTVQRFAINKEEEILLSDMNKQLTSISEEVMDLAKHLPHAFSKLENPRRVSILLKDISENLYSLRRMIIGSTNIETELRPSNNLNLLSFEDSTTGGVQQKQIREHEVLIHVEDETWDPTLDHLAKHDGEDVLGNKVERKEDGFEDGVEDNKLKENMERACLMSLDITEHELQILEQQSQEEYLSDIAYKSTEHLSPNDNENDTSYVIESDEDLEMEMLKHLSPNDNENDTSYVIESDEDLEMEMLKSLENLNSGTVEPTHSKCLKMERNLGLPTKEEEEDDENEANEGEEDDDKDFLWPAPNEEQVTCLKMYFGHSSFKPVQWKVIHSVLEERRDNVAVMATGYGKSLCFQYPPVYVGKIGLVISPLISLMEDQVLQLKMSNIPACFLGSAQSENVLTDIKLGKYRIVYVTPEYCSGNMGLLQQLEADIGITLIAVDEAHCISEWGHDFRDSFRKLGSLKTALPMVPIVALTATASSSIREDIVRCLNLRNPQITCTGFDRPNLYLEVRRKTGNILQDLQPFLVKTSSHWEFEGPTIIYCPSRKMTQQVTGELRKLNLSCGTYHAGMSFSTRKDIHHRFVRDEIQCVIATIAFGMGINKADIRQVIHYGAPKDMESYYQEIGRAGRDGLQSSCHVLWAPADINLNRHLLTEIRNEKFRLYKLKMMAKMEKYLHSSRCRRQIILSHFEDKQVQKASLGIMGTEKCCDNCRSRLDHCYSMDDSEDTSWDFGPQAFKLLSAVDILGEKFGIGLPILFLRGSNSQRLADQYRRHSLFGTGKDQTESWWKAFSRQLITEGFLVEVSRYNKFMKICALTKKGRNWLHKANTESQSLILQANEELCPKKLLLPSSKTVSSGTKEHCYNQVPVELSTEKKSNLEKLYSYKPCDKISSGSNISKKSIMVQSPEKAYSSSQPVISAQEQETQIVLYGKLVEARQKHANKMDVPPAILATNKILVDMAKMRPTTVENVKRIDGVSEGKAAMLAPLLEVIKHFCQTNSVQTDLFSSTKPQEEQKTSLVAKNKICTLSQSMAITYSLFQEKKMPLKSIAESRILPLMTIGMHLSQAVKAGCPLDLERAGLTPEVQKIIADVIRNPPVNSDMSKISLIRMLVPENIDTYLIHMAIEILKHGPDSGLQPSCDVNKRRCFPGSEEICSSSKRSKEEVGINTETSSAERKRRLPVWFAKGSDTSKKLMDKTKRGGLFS
hWRN(519-1227)_C-H3CV-GFP-10His, sequence (Q14191 519-1227): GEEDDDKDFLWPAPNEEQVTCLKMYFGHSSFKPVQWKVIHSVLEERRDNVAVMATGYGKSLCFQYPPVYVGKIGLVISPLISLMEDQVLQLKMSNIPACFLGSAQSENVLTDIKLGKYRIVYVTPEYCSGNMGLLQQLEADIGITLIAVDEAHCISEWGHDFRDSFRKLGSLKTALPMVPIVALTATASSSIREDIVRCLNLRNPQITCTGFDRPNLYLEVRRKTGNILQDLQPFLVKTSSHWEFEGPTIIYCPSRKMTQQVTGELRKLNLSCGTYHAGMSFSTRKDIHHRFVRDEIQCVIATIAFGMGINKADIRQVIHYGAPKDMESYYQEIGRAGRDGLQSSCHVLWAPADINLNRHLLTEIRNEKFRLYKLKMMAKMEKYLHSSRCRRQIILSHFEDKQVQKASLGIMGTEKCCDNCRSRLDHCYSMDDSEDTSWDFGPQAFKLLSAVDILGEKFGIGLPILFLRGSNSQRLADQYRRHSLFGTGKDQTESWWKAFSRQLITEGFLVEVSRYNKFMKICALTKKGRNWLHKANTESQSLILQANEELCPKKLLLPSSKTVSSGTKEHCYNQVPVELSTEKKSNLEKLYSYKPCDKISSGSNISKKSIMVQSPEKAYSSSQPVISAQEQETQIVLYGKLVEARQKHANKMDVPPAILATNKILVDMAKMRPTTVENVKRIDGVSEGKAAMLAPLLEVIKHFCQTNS

As for `C[C@@H](/C=C/S(C)(=O)=O)NC(=O)c1cnc([C@H]2C[C@H](C)C2)nc1Oc1ccccc1` (single isomer, unassigned) [Example 47], the IC50 was determined as 0.77 µM in test [1] (setting [5]) and 0.99 µM in test [3]. For the same compound, the values for the 50% growth inhibitory concentration (GI50) in test [2] and in test [4] were over 12.7 µM and 0.291 µM, respectively.
Turning to `COC[C@@H](/C=C/S(C)(=O)=O)NC(=O)c1cnc(C(F)(F)C(F)(F)F)nc1Oc1ccccc1` [Example 85, (R,E)-N-(1-methoxy-4-(methylsulfonyl)but-3-en-2-yl)-2-(perfluoroethyl)-4-phenoxypyrimidine-5-carboxamide], the IC50 is 0.12 µM in test [1] (setting [5]) and 0.22 µM in test [3]. The figures for the GI50 in test [2] and in test [4] were 11.5 µM and 0.0484 µM, respectively.
As to `CC1(Cc2ncc(C(=O)N3CC(=CS(C)(=O)=O)C3)c(Oc3ccccc3)n2)CC1` [Example 41, (2-((1-methylcyclopropyl)methyl)-4-phenoxypyrimidin-5-yl)(3-((methylsulfonyl)methylene)azetidin-1-yl)methanone], the results for the IC50 in test [1] and in test [3] were 1.4 µM and 2.06 µM, respectively. Moreover, the GI50 (usually the concentration that inhibits growth by half) is 33 µM in test [2] and 0.72 µM in test [4].
As for `CC(=O)C=C1CN(C(=O)c2cnc(C(C)(C)C)nc2Oc2ccccc2)C1` [Example 190, 1-(1-(2-(tert-butyl)-4-phenoxypyrimidine-5-carbonyl)azetidin-3-ylidene)propan-2-one], the values for the IC50 in test [1] and in test [3] were 0.31 µM and 0.69 µM, respectively. For the same compound, the 50% growth inhibitory concentration (GI50) was found to be 5.4 µM in test [2] and 0.53 µM in test [4].
In the case of `C[C@@H](/C=C/S(C)(=O)=O)NC(=O)c1cnc([C@H]2C[C@@H](C)C2)nc1Oc1ccccc1` (single isomer, unassigned) [Example 46], the results for the IC50 in test [1] (setting [5]) and in test [3] were 0.287 µM and 0.99 µM, respectively. The GI50 is over 11.9 µM in test [2] and 0.124 µM in test [4].
For `CS(=O)(=O)/C=C/[C@@H](NC(=O)c1cnc(C2CC2)nc1Oc1ccccc1)C1CCOCC1` [Example 33, (S,E)-2-cyclopropyl-N-(3-(methylsulfonyl)-1-(tetrahydro-2H-pyran-4-yl)allyl)-4-phenoxypyrimidine-5-carboxamide], in that order: 2.5 µM, 4.64 µM, over 100 µM and 1.3 µM.
For `C[C@@H](/C=C/S(=O)(=O)C1CC1)NC(=O)c1cnc(C2CC2)nc1Oc1ccccc1` [Example 25, (S,E)-2-cyclopropyl-N-(4-(cyclopropylsulfonyl)but-3-en-2-yl)-4-phenoxypyrimidine-5-carboxamide], in that order: 12 µM, over 100 µM, over 10 µM and 5 µM.
For `CC(C)c1ncc(C(=O)N[C@H](/C=C/S(C)(=O)=O)C2CC2)c(Oc2ccccc2)n1` [Example 16, (S,E)-N-(1-cyclopropyl-3-(methylsulfonyl)allyl)-2-isopropyl-4-phenoxypyrimidine-5-carboxamide], in that order: 0.18 µM, 0.65 µM, 24.3 µM and 0.0849 µM.
With `CC(C)(C)c1ncc(C(=O)N[C@H](/C=C/S(C)(=O)=O)CC2CC2)c(Oc2ccccc2)n1` [Example 65, (S,E)-2-(tert-butyl)-N-(1-cyclopropyl-4-(methylsulfonyl)but-3-en-2-yl)-4-phenoxypyrimidine-5-carboxamide], the values for the IC50 in test [1] (setting [5]) and in test [3] were 0.3 µM and 1.17 µM, respectively. Also, the concentration for 50% growth inhibition (GI50) in test [2] came to 25.4 µM; in test [4], 0.0869 µM.
`C[C@@H](/C=C/S(C)(=O)=O)NC(=O)c1cnc(C2CCCC2)nc1Oc1ccc(C#N)cc1` [Example 124, (S,E)-4-(4-cyanophenoxy)-2-cyclopentyl-N-(4-(methylsulfonyl)but-3-en-2-yl)pyrimidine-5-carboxamide]: the values for the IC50 in test [1] (setting [5]) and in test [3] were 14 µM and 6.92 µM, respectively. The GI50 in test [2] and in test [4] was over 10 µM in each case.
Regarding `CC(C)(C)c1ncc(C(=O)N[C@H](/C=C/S(C)(=O)=O)C2CC(F)(F)C2)c(Oc2ccccc2)n1` [Example 67, (S,E)-2-(tert-butyl)-N-(1-(3,3-difluorocyclobutyl)-3-(methylsulfonyl)allyl)-4-phenoxypyrimidine-5-carboxamide], the IC50 in test [1] (setting [5]) was found to be 0.14 µM; in test [3], 0.5 µM. Also, the results for the concentration for 50% growth inhibition (GI50) in test [2] and in test [4] were 9.78 µM and 0.0439 µM, respectively.
For `CC(C)Cc1ncc(C(=O)N[C@@H](C)/C=C/S(C)(=O)=O)c(Oc2ccccc2)n1` [Example 214, (S,E)-2-isobutyl-N-(4-(methylsulfonyl)but-3-en-2-yl)-4-phenoxypyrimidine-5-carboxamide], in that order: 10 µM, over 100 µM, over 19.5 µM and 2.47 µM.
Turning to `CS(=O)(=O)/C=C/[C@@H](NC(=O)c1cnc(C2CC2)nc1Oc1ccccc1)C1CC(F)(F)C1` [Example 30, (S,E)-2-cyclopropyl-N-(1-(3,3-difluorocyclobutyl)-3-(methylsulfonyl)allyl)-4-phenoxypyrimidine-5-carboxamide], the IC50 in test [1] (setting [5]) was 0.45 µM; in test [3] it was 1.43 µM. Also, the results for the GI50 in test [2] and in test [4] were 16 µM and 0.12 µM, respectively.
For `CS(=O)(=O)/C=C/[C@@H](NC(=O)c1cnc(CC(F)(F)F)nc1Oc1ccccc1)C1CC1` [Example 261, (S,E)-N-(1-cyclopropyl-3-(methylsulfonyl)allyl)-4-phenoxy-2-(2,2,2-trifluoroethyl)pyrimidine-5-carboxamide], in that order: 0.88 µM, 1.79 µM, 38 µM and 0.35 µM.
Turning to `CS(=O)(=O)C=C1CN(C(=O)c2cnc([C@H]3C[C@H](C)C3)nc2Oc2ccccc2)C1` (single isomer, unassigned) [Example 51, (2-((1r,3r)-3-methylcyclobutyl)-4-phenoxypyrimidin-5-yl)(3-((methylsulfonyl)methylene)azetidin-1-yl)methanone], the figures for the IC50 in test [1] and in test [3] were 0.45 µM and 3.3 µM, respectively. For the same compound, the GI50 in test [2] came to 8.52 µM; in test [4], 0.184 µM.
Consider `C=C(C#N)CNC(=O)c1cnc(C(C)(C)C)nc1Oc1ccccc1` [Example 270, 2-(tert-butyl)-N-(2-cyanoallyl)-4-phenoxypyrimidine-5-carboxamide], for which the IC50 in test [1] (setting [5]) is 0.91 µM; in test [3], 8.53 µM. For the same compound, the concentration for 50% growth inhibition (GI50) in test [2] was 11 µM; in test [4] it was 0.51 µM.
The matching figures for `C=C(C#N)CNC(=O)c1cnc(C2CCCC2)nc1Oc1ccccc1` [Example 268, N-(2-cyanoallyl)-2-cyclopentyl-4-phenoxypyrimidine-5-carboxamide]: 1.7 µM, 23.3 µM, 14 µM and 2.1 µM.
For `C[C@@H](/C=C/S(C)(=O)=O)NC(=O)c1cnc(C(C)(C)C)nc1O[C@@H]1C[C@@H]2C[C@@H]2C1` [Example 157, 4-[[(1S,5R)-3-bicyclo[3.1.0]hexanyl]oxy]-2-tert-butyl-N—[(E,1S)-1-methyl-3-methylsulfonyl-allyl]pyrimidine-5-carboxamide], in that order: 4 µM, 15 µM, over 10 µM and 1.1 µM.
Regarding `COC[C@@H](/C=C/S(C)(=O)=O)NC(=O)c1cnc(C(C)(C)C)nc1Oc1ccccc1` [Example 63, (R,E)-2-(tert-butyl)-N-(1-methoxy-4-(methylsulfonyl)but-3-en-2-yl)-4-phenoxypyrimidine-5-carboxamide], the IC50 in test [1] (setting [5]) was 0.0879 µM; in test [3], 0.5 µM. The GI50 amounted to 31 µM in test [2] and 0.0306 µM in test [4].
For `CO[C@@H](C)[C@@H](/C=C/S(C)(=O)=O)NC(=O)c1cnc(C(C)(F)F)nc1Oc1ccccc1` [Example 93, 2-(1,1-difluoroethyl)-N-((3R,4S,E)-4-methoxy-1-(methylsulfonyl)pent-1-en-3-yl)-4-phenoxypyrimidine-5-carboxamide], the IC50 in test [1] (setting [5]) turned out to be 0.46 µM; in test [3], 4.19 µM. Moreover, the GI50 in test [2] came to 87.5 µM; in test [4] it was 0.128 µM.
The matching figures for `CS(=O)(=O)/C=C/[C@@H](NC(=O)c1cnc(N2CC(F)C2)nc1Oc1ccccc1)C1CC1` [Example 182, (S,E)-N-(1-cyclopropyl-3-(methylsulfonyl)allyl)-2-(3-fluoroazetidin-1-yl)-4-phenoxypyrimidine-5-carboxamide]: 1.1 µM, 4.86 µM, 19 µM and 0.108 µM.
As for `C=C(C#N)CNC(=O)c1cnc(C2CC2)nc1Oc1ccccc1` [Example 269, N-(2-cyanoallyl)-2-cyclopropyl-4-phenoxypyrimidine-5-carboxamide], the IC50 in test [1] is 6.1 µM; in test [3], 25 µM. The GI50 in test [2] was found to be 17.9 µM; in test [4], 3.3 µM.
Regarding `CC(C)=Cc1ncc(C(=O)N[C@@H](C)/C=C/S(C)(=O)=O)c(Oc2ccccc2)n1` [Example 213, (S,E)-2-(2-methylprop-1-en-1-yl)-N-(4-(methylsulfonyl)but-3-en-2-yl)-4-phenoxypyrimidine-5-carboxamide], the values for the IC50 in test [1] (setting [5]) and in test [3] were 11 µM and over 100 µM, respectively. For the same compound, the results for the GI50 in test [2] and in test [4] were 12.7 µM and 2.16 µM, respectively.
